# Experimental data taken from patent US20120196830A1, “KITS AND IMPROVED COMPOSITIONS FOR TREATING LOWER URINARY TRACT DISORDERS” (priority 2005, published 2012).
# Like-named read-outs stand apart in the source and are kept apart here.
# What was measured:
# IC patients [1] = conditions: intravesical instillations; cited from earlier work
# cancer patients = conditions: cited from earlier work
# [2] = Uncharged fraction of lidocaine by Henderson-Hasselbalch equation; type: physicochemical
# Excerpt: For the acute-acting anesthetic to function properly, it typically needs to be in a pH environment that enables the chemical form of the drug to be neutral thereby allowing the molecule to traverse the membranes and gain access to the neurons underlying the bladder epithelium. To achieve this pH, a buffer must be provided so that the pH is sufficiently near to the isoelectric point of the chosen anesthetic to ensure that a sufficient portion of the acute-acting anesthetic is present in an uncharged state. A sufficient portion can minimally be 20% up to 100% in its uncharged state and those skilled in the art can use the drug's isoelectric point and the Henderson-Hasselbalch equation to calculate the minimal pH of the solution to achieve the 20% minimal uncharged amount. Preferably, the pH of the solution is such that at least about 40% of the acute-acting anesthetic is present in an uncharged state. […]. This buffering can be achieved by the addition of bicarbonate buffer, Tris (Tris(hydroxymethyl)aminomethane) buffer, MOPS buffer (3-(N-morpholino)propanesulfonic acid), HEPES (N-(2-hydroxyethyl)piperazine-N′-(2-ethanesulfonic acid) buffer, ACES (2-[(2-amino-2-oxoethyl)amino]ethanoesulfonic acid) buffer, ADA (N-(2-acetamido)-2-iminodiacetic acid) buffer, AMPSO (3-[(1,1-dimethyl-2-hydroxyethyl)amino]-2-propanesulfonic acid) buffer, BES (N,N-bis(2-hydroxyethyl)-2-aminoethanesulfonic acid buffer, Bicine (N,N-bis(2-hydroxyethylglycine) buffer, Bis-Tris (bis-(2-hydroxyethyl)imino-tris(hydroxymethyl)methane buffer, CAPS (3-(cyclohexylamino)-1-propanesulfonic acid) buffer, CAPSO (3-(cyclohexylamino)-2-hydroxy-1-propanesulfonic acid) buffer, CHES (2-(N-cyclohexylamino)ethanesulfonic acid) buffer, DIPSO (3-[N,N-bis(2-hydroxyethyl)amino]-2-hydroxy-propanesulfonic acid) buffer, HEPPS(N-(2-hydroxyethylpiperazine)-N′-(3-propanesulfonic acid), buffer, HEPPSO(N-(2-hydroxyethyl)piperazine-N′-(2-hydroxypropanesulfonic acid) buffer, MES (2-(N-morpholino)ethanesulfonic acid) buffer, triethanolamine buffer, imidazole buffer, glycine buffer, ethanolamine buffer, phosphate buffer, MOPSO (3-(N-morpholino)-2-hydroxypropanesulfonic acid) buffer, PIPES (piperazine-N,N′-bis(2-ethanesulfonic acid) buffer, POPSO (piperazine-N,N′-bis(2-hydroxypropaneulfonic acid) buffer; TAPS(N-tris[hydroxymethyl)methyl-3-aminopropanesulfonic acid) buffer, TAPSO (3-[N-tris(hydroxymethyl)methylamino]-2-hydroxy-propanesulfonic acid) buffer, TES (N-tris(hydroxymethyl)methyl-2-aminoethanesulfonic acid) buffer, tricine (N-tris(hydroxymethyl)methylglycine buffer), 2-amino-2-methyl-1,3-propanediol buffer, 2-amino-2-methyl-1-propanol buffer, or another buffer that can buffer the composition to be administered at the appropriate pH value. The buffer to be selected, and the concentration of the buffer to be used, can be chosen by one of ordinary skill in the art to buffer the composition to be administered at a pH value that is close to the isoelectric point of the local anesthetic. […]. For bupivacaine, it is 8.1. For etidocaine, it is 7.7. For flecamide, it is 9.3. Typically, the pH achieved by the use of the buffer is between about 7.0 and about 12.0. More typically, the pH achieved by the use of the buffer is between about 7.0 and about 9.5. Typically, when bicarbonate buffer is used, it is sodium bicarbonate buffer; however, other counterions can be used as described above.
# IC patients [3] = conditions: intravesical, interstitial cystitis; cited from earlier work
molecule,measurement,setting,value
"C[S+](C)[O-] [DMSO, dimethylsulfoxide]",IC patients treated with benefit,IC patients [1],~50%
"O=S(=O)(O)CCS [Mesnex, mesna]",frequency of adverse events (all AEs),cancer patients; IV,85%
same,frequency of adverse events (all AEs),cancer patients; oral,89%
CCN(CC)CC(=O)Nc1c(C)cccc1C [lidocaine],lidocaine uncharged,[2]; pH 6.6,5%
same,lidocaine uncharged,[2]; pH 7.0,10%
same,lidocaine uncharged,[2]; pH 7.2,20%
same,lidocaine uncharged,[2]; pH 7.5,30%
same,lidocaine uncharged,[2]; pH 7.7,40%
same,lidocaine uncharged,[2]; pH 7.9,50%
heparin,patients treated in whom effective,IC patients [3],approximately 50%
